Values quoted from earlier work, collected in patent US10149828B2, “Oxybutynin transdermal therapeutic system combination” (priority 2015, dated 2018).

How the values were obtained:
[1] = administered orally to mice
[2] = [14C] oxybutynin, transdermal, rats
[3] = compared to placebo over six months; pivotal clinical trials
[4] = open-label, titrated to 6 mg twice daily, 26 weeks

Structure (SMILES)	crossing of the Blood-Brain-Barrier [1]	radiolabel in the brain [2]	improvement on the 30-point Mini-Mental Status Examination (MMSE) [3]	improvement on the 70-point cognitive subscale of the Alzheimer's Disease Assessment Scale (ADAS-Cog) [3] [point]	cognitive functions in PD patients with dementia [4]	motor function in PD patients with dementia [4]
CCN(CC)CC#CCOC(=O)C(O)(c1ccccc1)C1CCCCC1 (stereo not drawn) [oxybutynin, 4-diethylaminobut-2-ynyl 2-cyclohexyl-2-hydroxy-2-phenylethanoate]	has been shown to cross the Blood-Brain-Barrier	presence of radiolabel in the brain				
CCN(C)C(=O)Oc1cccc([C@H](C)N(C)C)c1 [rivastigmine, (S)-N-Ethyl-N-methyl-3-[1-(dimethylamino)ethyl]-phenyl carbamate]			1-1.5 point	~2.8	may improve	no worsening
